According to patent US8597660B2, “Therapeutic approach to neurodegenerative disorders using a TFP5-peptide” (The United States of America, as represented by the …, priority 2010, dated 2013):
Entries after “also recorded” stand apart in the source; their conditions may differ.

How the values were obtained:
[1] = tested on: Cdc2, Cdk2, Cdk4, and Cdk6; assay: Kinase pad assay on Cdk immunoprecipitates of untreated HEK293 lysates with added P5 peptide; format: biochemical, human; settings: P5 peptide up to 1.8 μM; roscovitine 20 μM
Method: Briefly, 7 days in culture (7 DIC) primary rat cortical neurons were infected with P25, P35, Cdk5 wild-type, dominant negative-Cdk5 and P5 using the lentiviral gene delivery as described earlier. Cdk5 was immunoprecipitated using the polyclonal C8 antibody overnight at 4° C. and immunoglobulin isolated using Protein A sepharose beads for 2 hours at 4° C. Immunoprecipitates were washed three times with lysis buffer and then once with 1× kinase buffer containing 20 mM Tris-Cl pH 7.4, 1 mM EDTA, 1 mM EGTA, 10 mM MgCl2, 10 mM sodium fluoride and 1 mM sodium orthovanadate. Endogenous Cdks were immunoprecipitated from HEK 293 cells using their respective antibodies and treated as above. […] ATP with 20 μg of histone H1 as the substrate. Phosphorylation was performed in a final volume of […] incubated at 30° C. for 60 minutes, stopped by the addition of 10% SDS sample buffer and heating at 95° C. for 5 minutes. Samples were separated by SDS-PAGE, gels were stained with Coomassie, destained, dried and exposed to autoradiography. In pad assays, 25 μl aliquots of the incubation mixture were placed on a Whatman p80 paper square, washed and dried and placed in a scintillation vial for counting.

[2] = tested on: cortical neurons; assay: TUNEL assay of Aβ-induced apoptosis in cortical neurons; format: cell-based, rat; settings: neurons transfected with GFP-P5, Aβ 6 h
Method: Primary cortical neuron cells were cultured for 5 days on glass coverslips coated with poly-L-lysine, and transfected with or without P5 using Lipofectamine 2000. After 24 hours, TUNEL staining was done according to the manufacturer's instructions. Cells were washed three times in PBS, fixed for 1 hour at room temperature in fresh 4% paraformaldehyde in PBS, and permeabilized (0.1% Triton X-100 in 0.1 sodium citrate) for 2 minutes on ice. After washing 2× with PBS, TUNEL reaction mixture (50 μl) was added and incubated in a humidified atmosphere at 37° C. for 1 hour. TUNEL staining and fluorescent images were visualized with a Zeiss LSM-510 laser-scanning confocal microscope. Images were processed and merged by Adobe Photoshop software.
To determine whether P5 inhibited neuronal apoptosis induced by Aβ, primary cortical neurons (5 days in culture (DIC)) were transfected with P5-GFP using Lipofectamine 2000. After 24 hours, cells were exposed to Aβ for 6 hours. The neurons were fixed and subjected to TUNEL staining, while P5 was visualized by (green fluorescent protein) GFP. […] The data are quantified in FIG. 5B. More than 85% of nontransfected neurons were apoptosis positive. […] Cortical neurons infected with or without P5 and treated with Aβ for 6 hours were assayed for cleaved caspase 3 by Western blot analysis (FIG. 5C). […]. […] The data are quantified in FIG. 5D.

[3] = biological target: Cdk5/P25 (Homo sapiens, UniProt Q00535); assay: Kinase assay of Cdk5 immunoprecipitates from cortical neurons infected with Cdk5/P25 with or without P5; format: cell-based; design: expressed in transfected cells; host or cells: E-18 rat cortical neurons, adenoviral infection (pAdTrack-CMV / AdEasy); settings: E-18 rat cortical neurons co-infected with P5
Method: Primary cultures of rat cortical neurons were prepared from E-18 rat fetuses as described previously (Zheng et al., J Biol Chem 278(26), 24026-24032, 2003). After 7 days, cells were infected independently or co-infected with empty vector (EV), the constructs of P5, P25, P35, wild-type Cdk5 and dominant negative Cdk5 (changing Lys33 to Thr33) using the Adenoviral vector (pAdTrack-CMV) packaging system as described above. […] The cells were fixed for immunocytochemistry analyses (ICC) or lysed with lysis buffer for immunoprecipitation and Western blot analyses. Cortical neuron cultures were prepared and plated on the cover slips as described. Human embryo kidney cells (HEK293) were grown as described previously (Zheng et al., Eur J Biochem 269(18), 4427-4434, 2002). In these studies HEK293 cells on day 1, or neurons on day 5, were transfected with or without Myc-P5-GFP using Lipofectamine 2000 following the manufacturer's instructions.
Kinase assays were performed as previously described (Veeranna, et al., J Neurosci 18(11), 4008-4021, 1998). Briefly, 7 days in culture (7 DIC) primary rat cortical neurons were infected with P25, P35, Cdk5 wild-type, dominant negative-Cdk5 and P5 using the lentiviral gene delivery as described earlier. […]

Chain of Cdk5/P25 (Q00535 whole entry, species assumed): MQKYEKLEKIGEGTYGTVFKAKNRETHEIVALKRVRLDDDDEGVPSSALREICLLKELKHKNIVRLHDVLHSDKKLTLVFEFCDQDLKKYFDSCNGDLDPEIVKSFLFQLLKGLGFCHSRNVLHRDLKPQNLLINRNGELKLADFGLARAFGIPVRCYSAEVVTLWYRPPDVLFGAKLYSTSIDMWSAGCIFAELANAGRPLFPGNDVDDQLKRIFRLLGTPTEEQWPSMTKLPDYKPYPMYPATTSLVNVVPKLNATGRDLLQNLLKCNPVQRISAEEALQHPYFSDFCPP

P5: 24 residue peptide derived from Cdk5 activator P35 (K254-A277 of SEQ ID NO: 16); Cdk5 inhibitory peptide (KEAFWDRCLSVINLMSSKMLQINA; listed as Homo sapiens)
Inhibition of cell cycle Cdk activities in vitro [1]: virtually no inhibition; also recorded: minimal inhibition of Cdc2 and Cdk4 activities | Aβ-induced apoptosis (TUNEL) [2]: virtually all P5 transfected cells were protected from Aβ-induced apoptosis; also recorded: clearly inhibited Aβ-mediated neuronal apoptosis | Decrease of Cdk5 activity in neurons infected with Cdk5/P25 [3]: more than 90%
